By IC50 is commonly meant the concentration that inhibits the measured activity by half.

Structures can show the parent of a compound that is named as a salt.

Chain of human KAT II (hKAT II) enzyme (Q8N5Z0 30-425): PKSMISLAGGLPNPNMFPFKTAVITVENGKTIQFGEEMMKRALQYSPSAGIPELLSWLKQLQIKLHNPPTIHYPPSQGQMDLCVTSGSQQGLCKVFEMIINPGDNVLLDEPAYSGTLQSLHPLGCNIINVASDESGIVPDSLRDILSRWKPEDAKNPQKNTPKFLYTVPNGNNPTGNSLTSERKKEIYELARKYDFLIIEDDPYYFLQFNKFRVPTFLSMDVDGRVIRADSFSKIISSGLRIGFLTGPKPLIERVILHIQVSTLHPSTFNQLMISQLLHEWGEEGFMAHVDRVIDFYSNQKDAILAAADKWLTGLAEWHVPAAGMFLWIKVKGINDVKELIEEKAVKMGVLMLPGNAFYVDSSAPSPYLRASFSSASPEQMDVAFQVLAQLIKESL

For the assay, the target named is human KAT II (hKAT II) enzyme (Homo sapiens, UniProt Q8N5Z0). Description: KAT II Inhibition Spectra Assay. The following applies: single determination unless marked a (geometric mean of 2-4 determinations); decrease in OD370, L-kynurenine substrate, 37° C. for 15-20 h; read-out: KATII IC50. In kind it is biochemical. The protocol:
KAT II Inhibition Spectra Assay
Formation of kynurenic acid (KYNA) is indirectly assessed by a decrease in light absorbance at 370 nm (OD370) as the L-kynurenine (KYN) substrate is converted by the human KAT II (hKAT II) enzyme into KYNA. An inhibitor would therefore inhibit the decrease in OD370.
The protocol was performed by placing the following reagents into a Costar 384 well black plate (30 μL total assay volume/well): • 10 μL of 3× concentrated compound; • 10 μL of 3× concentrated substrate mix (BGG (Sigma G-5009); 3 mM L-Kynurenine in 150 mM Tris Acetate (Sigma K3750); 3 mM α-ketoglutaric acid in 150 mM Tris Acetate (Sigma K2010); and 210 μM pyridoxal 5-phosphate (PLP) in 150 mM Tris Acetate (Sigma 9255)); and • 10 μL of 3× concentrated enzyme (15 nM enzyme in 150 mM Tris Acetate with 0.3% bovine serum).
Plates were sealed and incubated at 37° C. for 15-20 h before reading OD370 on a SpectraMax Plus plate reader. IC50s were generated by comparing the efficacy of compounds across a concentration range to inhibit a reduction in the OD370 value relative to assay wells with DMSO added in place of concentrated compound. Biological data for the Examples may be found in Table 2.
Take `COc1ccccc1-c1ccc2c(c1)CC(N)c1n[nH]c(=O)n1-2` (stereo not drawn) [Example 19, 4—amino—7—(2—methoxyphenyl)—4,5—dihydro[1,2,4]triazolo[4,3—a]quinolin—1(2H)—one, trifluoroacetate salt]: the half-inhibitory concentration (IC50) came to 0.751 µM.

`COc1ncccc1-c1ccc2c(c1)CC(N)c1n[nH]c(=O)n1-2` (stereo not drawn) [Example 33, 4—amino—7—(2—methoxypyridin—3—yl)—4,5—dihydro[1,2,4]triazolo[4,3—a]quinolin—1(2H)—one, trifluoroacetate salt]: the IC50 was determined as 0.197 µM. As for `COc1ccc(-c2ccc3c(c2)CC(N)c2n[nH]c(=O)n2-3)cn1` (stereo not drawn) [Example 22, 4—amino—7—(6—methoxypyridin—3—yl)—4,5—dihydro[1,2,4]triazolo[4,3—a]quinolin—1(2M—one, trifluoroacetate salt], the IC50 was determined as 1.9 µM.

Consider `NC1Cc2cc(Oc3ccccc3)cnc2-n2c1n[nH]c2=O` (single isomer, unassigned; ent-1) [Example 2, 6-Amino-3-phenoxy-6,8-dihydro[1,2,4]triazolo[4,3-a][1,8]naphthyridin-9(5H)-one, ENT-1], for which the IC50 worked out at 0.059 µM. `COc1cccc(Oc2ccc3c(c2)CC(N)c2nncn2-3)c1` (single isomer, unassigned; ent-1) [Example 4, 7-(3-Methoxyphenoxy)-4,5-dihydro[1,2,4]triazolo[4,3-a]quinolin-4-amine, ENT-1]: the IC50 was 0.107 µM. With `NC1Cc2cc(-c3ccccc3OC(F)(F)F)ccc2-n2c1n[nH]c2=O` (stereo not drawn) [Example 37, 4—amino—7—[2—(trifluoromethoxy)phenyl]—4,5—dihydro[1,2,4]triazolo[4,3—a]quinolin—1(2H)—one, trifluoroacetate salt], the IC50 worked out at 0.527 µM. In the case of `Cn1cc2c(-c3ccc4c(c3)CC(N)c3n[nH]c(=O)n3-4)cccc2n1` (stereo not drawn) [Example 41, 4—amino—7—(2—methyl—2H—indazol—4—yl)—4,5—dihydro[1,2,4]triazolo[4,3—a]quinolin—1(2H)—one, trifluoroacetate salt], the IC50 was found to be 1.08 µM. Then `NC1Cc2cc(-c3ccccc3Cl)ccc2-n2c1n[nH]c2=O` (stereo not drawn) [Example 11, 4—amino—7—(2-chlorophenyl)—4,5—dihydro[1,2,4]triazolo[4,3—a]quinolin—1(2H)—one, trifluoroacetate salt], with 0.506 µM; and `NC1Cc2cc(Oc3ccccc3)ncc2-n2cnnc21` (stereo not drawn) [Example 7, 7-Phenoxy-4,5-dihydro[1,2,4]triazolo[4,3-a][1,7]naphthyridin-4-amine, hydrochloride salt], with 0.413 µM. With `NC1Cc2cc(-c3ccccc3F)ccc2-n2c1n[nH]c2=O` (stereo not drawn) [Example 29, 4—amino—7—(2—fluorophenyl)—4,5—dihydro[1,2,4]triazolo[4,3—a]quinolin—1(2H)—one, trifluoroacetate salt], the IC50 came to 0.361 µM.

Regarding `COc1cccc(Oc2ccc3c(c2)C[C@H](N)c2noc(=O)n2-3)c1` [Example 6, (4S)-4-Amino-7-(3-methoxyphenoxy)-4,5-dihydro[1,2,4]oxadiazolo[4,3-a]quinolin-1-one, hydrochloride salt], the IC50 is 0.39 µM. For the compound `Cn1cc(-c2ccc3c(c2)CC(N)c2n[nH]c(=O)n2-3)cn1` (stereo not drawn) [Example 18, 4—amino—7—(1—methyl—1H—pyrazol—4—yl)—4,5—dihydro[1,2,4]triazolo[4,3—a]quinolin—1(2H)—one, trifluoroacetate salt], the IC50 is 1.36 µM. As to `CC(=O)c1cccc(-c2ccc3c(c2)CC(N)c2n[nH]c(=O)n2-3)c1` (stereo not drawn) [Example 25, 7—(3—acetylphenyl)—4—amino—4,5—dihydro[1,2,4]triazolo[4,3—a]quinolin—1(2H)—one, trifluoroacetate salt], the IC50 amounted to 0.0919 µM. As for `NC1Cc2cc(Oc3ccccc3)cnc2-n2cnnc21` (single isomer, unassigned) [Example 9, 3—phenoxy—5,6—dihydro[1,2,4]triazolo[4,3—a][1,8]naphthyridin—6—amine ENT—2], the IC50 was 1.31 µM. Regarding `COc1cc2c(cc1Cc1ccccc1)CC(N)c1nncn1-2` (stereo not drawn) [Example 46, 7—benzyl—8—methoxy—4,5—dihydro[1,2,4]triazolo[4,3—a]quinolin—4—amine, hydrochloride salt], the IC50 was determined as 1.13 µM. Turning to `COc1cncc(-c2ccc3c(c2)CC(N)c2n[nH]c(=O)n2-3)c1` (stereo not drawn) [Example 13, 4—amino—7—(5—methoxypyriclin—3—yl)—4,5—dihydro[1,2,4]triazolo[4,3—a]quinolin—1(2H)—one, trifluoroacetate salt], the IC50 came to 0.673 µM. Regarding `Cc1ccccc1-c1ccc2c(c1)CC(N)c1n[nH]c(=O)n1-2` (stereo not drawn) [Example 31, 4—amino—7—(2—methylphenyl)—4,5—dihydro[1,2,4]triazolo[4,3—a]quinolin—1(2H)—one, trifluoroacetate salt], the IC50 was found to be 0.66 µM. For the compound `Cc1cc(-c2ccc3c(c2)CC(N)c2n[nH]c(=O)n2-3)cnc1F` (stereo not drawn) [Example 43, 4—amino—7—(6—fluoro—5—methylpyridin—3—yl)—4,5—dihydro[1,2,4]triazolo[4,3—a]quinolin—1(2H)—one, trifluoroacetate salt], the IC50 was 0.263 µM. With `NC1Cc2cc(-c3cccnc3)ccc2-n2c1n[nH]c2=O` (stereo not drawn) [Example 20, 4—amino—7—(pyridin—3—yl)—4,5—dihydro[1,2,4]triazolo[4,3—a]quinolin—1(2H)—one, trifluoroacetate salt], the IC50 stood at 0.546 µM.

With `NC1Cc2cc(-c3ccc(F)nc3)ccc2-n2c1n[nH]c2=O` (stereo not drawn) [Example 42, 4—amino—7—(6—fluoropyridin—3—yl)—4,5—dihydro[1,2,4]triazolo[4,3—a]quinolin—1(2H)—one, trifluoroacetate salt], the IC50 worked out at 0.849 µM. In the case of `NC1Cc2cc(-c3cccc4cnccc34)ccc2-n2c1n[nH]c2=O` (stereo not drawn) [Example 12, 4—amino—7—(isoquinolin—5—yl)—4,5—dihydro[1,2,4]triazolo[4,3—a]quinolin—1(2H)—one, trifluoroacetate salt], the IC50 came out at 0.334 µM. Take `CCOc1cc(-c2ccc3c(c2)CC(N)c2n[nH]c(=O)n2-3)ccn1` (stereo not drawn) [Example 17, 4—amino—7—(2—ethoxypyridin—4—yl)—4,5—dihydro[1,2,4]triazolo[4,3—a]quinolin—1(2H)—one, trifluoroacetate salt]: the IC50 is 1.83 µM. For `NC1Cc2cc(Cc3ccccc3)ccc2-n2c1n[nH]c2=O` (stereo not drawn) [Example 44, 4—amino—7—benzyl—4,5—dihydro[1,2,4]triazolo[4,3—a]quinolin—1(2H)—one, hydrochloride salt], the IC50 was 0.426 µM. For `Cn1nccc1-c1ccc2c(c1)CC(N)c1n[nH]c(=O)n1-2` (stereo not drawn) [Example 36, 4—amino—7—(1—methyl—1H—pyrazol—5—yl)—4,5—dihydro[1,2,4]triazolo[4,3—a]quinolin—1(2H)—one, trifluoroacetate salt], the IC50 amounted to 0.632 µM. Consider `CC(C)Oc1cccc(-c2ccc3c(c2)CC(N)c2n[nH]c(=O)n2-3)c1` (stereo not drawn) [Example 30, 4—amino—7—[3—(propan—2—yloxy)phenyl]—4,5—dihydro[1,2,4]triazolo[4,3—a]quinolin—1(2H)—one, trifluoroacetate salt], for which the IC50 turned out to be 0.534 µM. Regarding `NC1Cc2cc(-c3ccccc3C(F)(F)F)ccc2-n2c1n[nH]c2=O` (stereo not drawn) [Example 40, 4—amino—7—[2—(trifluoromethyl)phenyl]—4,5—dihydro[1,2,4]triazolo[4,3—a]quinolin—1(2H)—one, trifluoroacetate salt], the IC50 is 0.32 µM. With `NC1Cc2cc(-c3ccccc3)ccc2-n2c1n[nH]c2=O` (stereo not drawn) [Example 45, 4—amino—7—phenyl—4,5-dihydro[1,2,4]triazolo[4,3—a]quinolin—1(2H)—one, hydrochloride salt] the figure was 0.79 µM; with `NC1Cc2cc(-c3cccc(F)c3F)ccc2-n2c1n[nH]c2=O` (stereo not drawn) [Example 26, 4—amino—7—(2,3-difluorophenyl)—4,5—dihydro[1,2,4]triazolo[4,3—a]quinolin—1(2H)—one, trifluoroacetate salt], 0.364 µM; with `NC1Cc2cc(Oc3ccccc3)cnc2-n2cnnc21` (single isomer, unassigned) [Example 8, 3—phenoxy—5,6—dihydro[1,2,4]triazolo[4,3—a][1,8]naphthyridin—6—amine ENT—1], 0.286 µM.

Turning to `COc1cccc(Oc2ccc3c(c2)CC(N)c2nncn2-3)c1` (single isomer, unassigned; ent-2) [Example 5, 7-(3-Methoxyphenoxy)-4,5-dihydro[1,2,4]triazolo[4,3-a]quinolin-4-amine, ENT-2], the IC50 came to 1.24 µM. Then `COc1cc2c(cc1Cc1ccccc1)CC(N)c1n[nH]c(=O)n1-2` (stereo not drawn) [Example 47, 4—amino—7—benzyl—8—methoxy—4,5—dihydro[1,2,4]triazolo[4,3—a]quinolin—1(2H)—one, hydrochloride salt], with 0.637 µM. With `NC1Cc2cc(-c3cccc(Cl)c3)ccc2-n2c1n[nH]c2=O` (stereo not drawn) [Example 14, 4—amino—7—(3—chlorophenyl)—4,5—dihydro[1,2,4]triazolo[4,3—a]quinolin—1(2H)—one, trifluoroacetate salt] the figure was 0.156 µM. For `NC1Cc2cc(-c3cccc(C(F)(F)F)c3)ccc2-n2c1n[nH]c2=O` (stereo not drawn) [Example 27, 4—amino—7—[3—(trifluoromethyl)phenyl]—4,5—dihydro[1,2,4]triazolo[4,3-a]quinolin—1(2H)—one, trifluoroacetate salt], the IC50 stood at 0.215 µM.

(Values after patent US20150175603A1, “TRICYCLIC COMPOUNDS AS KAT II INHIBITORS” (PFIZER INC., priority 2012, published 2015).)
